Results taken from PubChem BioAssay (NCI).
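Briefly, cells in 96-well plates were exposed to five compound concentrations for 48 h, and endpoints were estimated by linear interpolation. Abbreviation: GI50, concentration required for 50% inhibition of growth. TGI marks complete inhibition of growth.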

Tests used:
Test in all cases: NCI-60 cell line screen, 48 h
786-0 renal = test system: 786-0 renal
A498 renal = test system: A498 renal
A549 NSCLC = test system: A549 NSCLC
ACHN renal = test system: ACHN renal
BT-549 breast = test system: BT-549 breast
CAKI-1 renal = test system: CAKI-1 renal
CCRF-CEM leukemia = test system: CCRF-CEM leukemia
COLO 205 colon = test system: COLO 205 colon
DU-145 prostate = test system: DU-145 prostate
EKVX NSCLC = test system: EKVX NSCLC
HCC-2998 colon = test system: HCC-2998 colon
HCT-116 colon = test system: HCT-116 colon
HCT-15 colon = test system: HCT-15 colon
HL-60(TB) leukemia = test system: HL-60(TB) leukemia
HOP-62 NSCLC = test system: HOP-62 NSCLC
HOP-92 NSCLC = test system: HOP-92 NSCLC
HS 578T breast = test system: HS 578T breast
HT29 colon = test system: HT29 colon
IGROV1 ovarian = test system: IGROV1 ovarian
K-562 leukemia = test system: K-562 leukemia
KM12 colon = test system: KM12 colon
LOX IMVI melanoma = test system: LOX IMVI melanoma
M14 melanoma = test system: M14 melanoma
MCF7 breast = test system: MCF7 breast
MDA-MB-231 breast = test system: MDA-MB-231 breast
MDA-MB-435 = test system: MDA-MB-435
MOLT-4 leukemia = test system: MOLT-4 leukemia
NCI-H226 lung = test system: NCI-H226 lung
NCI-H23 lung = test system: NCI-H23 lung
NCI-H460 lung = test system: NCI-H460 lung
NCI-H522 lung = test system: NCI-H522 lung
NCI/ADR-RES ovarian = test system: NCI/ADR-RES ovarian
OVCAR-3 ovarian = test system: OVCAR-3 ovarian
OVCAR-5 ovarian = test system: OVCAR-5 ovarian
OVCAR-8 ovarian = test system: OVCAR-8 ovarian
PC-3 prostate = test system: PC-3 prostate
RPMI-8226 leukemia = test system: RPMI-8226 leukemia
RXF 393 renal = test system: RXF 393 renal
SF-268 CNS = test system: SF-268 CNS
SF-295 CNS = test system: SF-295 CNS
SF-539 CNS = test system: SF-539 CNS
SK-MEL-2 melanoma = test system: SK-MEL-2 melanoma
SK-MEL-28 melanoma = test system: SK-MEL-28 melanoma
SK-MEL-5 melanoma = test system: SK-MEL-5 melanoma
SK-OV-3 ovarian = test system: SK-OV-3 ovarian
SN12C renal = test system: SN12C renal
SNB-19 CNS = test system: SNB-19 CNS
SNB-75 CNS = test system: SNB-75 CNS
SR leukemia = test system: SR leukemia
SW-620 colon = test system: SW-620 colon
T-47D breast = test system: T-47D breast
TK-10 renal = test system: TK-10 renal
U251 CNS = test system: U251 CNS
UACC-257 melanoma = test system: UACC-257 melanoma
UACC-62 melanoma = test system: UACC-62 melanoma
UO-31 renal = test system: UO-31 renal

Q: For `CC(=O)OC1Oc2ccc(C)cc2-c2oc(=O)c(-c3cc4ccccc4oc3=O)cc21` (configuration not stated), which GI50 (786-0 renal) is on record?
A: 1.92 µM

Q: What about the TGI (786-0 renal) of the same compound?
A: 7.74 µM

Q: What about the GI50 (A498 renal) of the same compound?
A: 0.612 µM

Q: And the TGI (A498 renal)?
A: 4.07 µM

Q: What about the GI50 (A549 NSCLC) of the same compound?
A: 4.55 µM

Q: What about the TGI (A549 NSCLC) of the same compound?
A: 20.8 µM

Q: And the GI50 (ACHN renal)?
A: 3.06 µM

Q: What about the TGI (ACHN renal) of the same compound?
A: 11.4 µM

Q: What about the GI50 (BT-549 breast) of the same compound?
A: 3.03 µM

Q: What about the TGI (BT-549 breast) of the same compound?
A: 8.86 µM

Q: What about the GI50 (CAKI-1 renal) of the same compound?
A: 2.56 µM

Q: And the TGI (CAKI-1 renal)?
A: 7.69 µM

Q: And the GI50 (CCRF-CEM leukemia)?
A: 1.38 µM

Q: What about the TGI (CCRF-CEM leukemia) of the same compound?
A: 5.42 µM

Q: What about the GI50 (COLO 205 colon) of the same compound?
A: 2.77 µM

Q: And the TGI (COLO 205 colon)?
A: 15.7 µM

Q: What about the GI50 (DU-145 prostate) of the same compound?
A: 1.92 µM

Q: And the TGI (DU-145 prostate)?
A: 8.1 µM

Q: What about the GI50 (EKVX NSCLC) of the same compound?
A: 6.02 µM

Q: And the TGI (EKVX NSCLC)?
A: 23.8 µM

Q: And the GI50 (HCC-2998 colon)?
A: 2.43 µM

Q: What about the TGI (HCC-2998 colon) of the same compound?
A: 9.33 µM

Q: And the GI50 (HCT-116 colon)?
A: 2.08 µM

Q: And the TGI (HCT-116 colon)?
A: 8.62 µM

Q: And the GI50 (HCT-15 colon)?
A: 1.87 µM

Q: What about the TGI (HCT-15 colon) of the same compound?
A: 11.6 µM

Q: And the GI50 (HL-60(TB) leukemia)?
A: 0.822 µM

Q: And the TGI (HL-60(TB) leukemia)?
A: 3.08 µM

Q: What about the GI50 (HOP-62 NSCLC) of the same compound?
A: 3.77 µM

Q: What about the TGI (HOP-62 NSCLC) of the same compound?
A: 12.8 µM

Q: What about the GI50 (HOP-92 NSCLC) of the same compound?
A: 1.12 µM

Q: What about the TGI (HOP-92 NSCLC) of the same compound?
A: 3.61 µM

Q: And the GI50 (HS 578T breast)?
A: 0.142 µM

Q: And the TGI (HS 578T breast)?
A: 8.09 µM

Q: And the GI50 (HT29 colon)?
A: 2.08 µM

Q: What about the TGI (HT29 colon) of the same compound?
A: 34 µM

Q: And the GI50 (IGROV1 ovarian)?
A: 4 µM

Q: And the TGI (IGROV1 ovarian)?
A: 37.7 µM

Q: What about the GI50 (K-562 leukemia) of the same compound?
A: 2.1 µM

Q: What about the TGI (K-562 leukemia) of the same compound?
A: 14.1 µM

Q: What about the GI50 (KM12 colon) of the same compound?
A: 1.43 µM

Q: And the TGI (KM12 colon)?
A: 5.94 µM

Q: And the GI50 (LOX IMVI melanoma)?
A: 1.2 µM

Q: What about the TGI (LOX IMVI melanoma) of the same compound?
A: 3.71 µM

Q: What about the GI50 (M14 melanoma) of the same compound?
A: 1.2 µM

Q: And the TGI (M14 melanoma)?
A: 2.78 µM

Q: And the GI50 (MCF7 breast)?
A: 1.98 µM

Q: What about the TGI (MCF7 breast) of the same compound?
A: 7.01 µM

Q: And the GI50 (MDA-MB-231 breast)?
A: 1.83 µM

Q: And the TGI (MDA-MB-231 breast)?
A: 5.67 µM

Q: What about the GI50 (MDA-MB-435) of the same compound?
A: 0.985 µM

Q: And the TGI (MDA-MB-435)?
A: 2.7 µM

Q: What about the GI50 (MOLT-4 leukemia) of the same compound?
A: 1.8 µM

Q: What about the TGI (MOLT-4 leukemia) of the same compound?
A: 3.99 µM

Q: What about the GI50 (NCI-H226 lung) of the same compound?
A: 4.61 µM

Q: And the TGI (NCI-H226 lung)?
A: 16.5 µM

Q: What about the GI50 (NCI-H23 lung) of the same compound?
A: 2.82 µM

Q: And the TGI (NCI-H23 lung)?
A: 12 µM

Q: What about the GI50 (NCI-H460 lung) of the same compound?
A: 2.64 µM

Q: What about the TGI (NCI-H460 lung) of the same compound?
A: 17.8 µM

Q: And the GI50 (NCI-H522 lung)?
A: 8.96 µM

Q: And the TGI (NCI-H522 lung)?
A: 34.6 µM

Q: And the GI50 (NCI/ADR-RES ovarian)?
A: 2.54 µM

Q: And the TGI (NCI/ADR-RES ovarian)?
A: 18.1 µM

Q: And the GI50 (OVCAR-3 ovarian)?
A: 1.19 µM

Q: What about the TGI (OVCAR-3 ovarian) of the same compound?
A: 8.15 µM

Q: What about the GI50 (OVCAR-5 ovarian) of the same compound?
A: 3.38 µM

Q: And the TGI (OVCAR-5 ovarian)?
A: 21 µM

Q: And the GI50 (OVCAR-8 ovarian)?
A: 3.8 µM

Q: What about the TGI (OVCAR-8 ovarian) of the same compound?
A: 8.16 µM

Q: What about the GI50 (PC-3 prostate) of the same compound?
A: 2.13 µM

Q: What about the TGI (PC-3 prostate) of the same compound?
A: 8.54 µM

Q: What about the GI50 (RPMI-8226 leukemia) of the same compound?
A: 0.943 µM

Q: And the TGI (RPMI-8226 leukemia)?
A: 2.41 µM

Q: What about the GI50 (RXF 393 renal) of the same compound?
A: 3.01 µM

Q: What about the TGI (RXF 393 renal) of the same compound?
A: 14.3 µM

Q: And the GI50 (SF-268 CNS)?
A: 3.27 µM

Q: And the TGI (SF-268 CNS)?
A: 12.2 µM

Q: What about the GI50 (SF-295 CNS) of the same compound?
A: 2.13 µM

Q: And the TGI (SF-295 CNS)?
A: 13 µM

Q: What about the GI50 (SF-539 CNS) of the same compound?
A: 2.07 µM

Q: What about the TGI (SF-539 CNS) of the same compound?
A: 6.21 µM

Q: What about the GI50 (SK-MEL-2 melanoma) of the same compound?
A: 8.14 µM

Q: And the TGI (SK-MEL-2 melanoma)?
A: 40.7 µM

Q: What about the GI50 (SK-MEL-28 melanoma) of the same compound?
A: 5.84 µM

Q: And the TGI (SK-MEL-28 melanoma)?
A: 27.1 µM

Q: And the GI50 (SK-MEL-5 melanoma)?
A: 2.67 µM

Q: And the TGI (SK-MEL-5 melanoma)?
A: 11.6 µM

Q: What about the GI50 (SK-OV-3 ovarian) of the same compound?
A: 1.8 µM

Q: And the TGI (SK-OV-3 ovarian)?
A: 8.57 µM

Q: And the GI50 (SN12C renal)?
A: 2.77 µM

Q: And the TGI (SN12C renal)?
A: 9.89 µM

Q: And the GI50 (SNB-19 CNS)?
A: 3.82 µM

Q: What about the TGI (SNB-19 CNS) of the same compound?
A: 25.5 µM

Q: What about the GI50 (SNB-75 CNS) of the same compound?
A: 2.88 µM

Q: What about the TGI (SNB-75 CNS) of the same compound?
A: 14.4 µM

Q: What about the GI50 (SR leukemia) of the same compound?
A: 0.571 µM

Q: And the TGI (SR leukemia)?
A: 2.04 µM

Q: And the GI50 (SW-620 colon)?
A: 6.05 µM

Q: What about the TGI (SW-620 colon) of the same compound?
A: 29.9 µM

Q: What about the GI50 (T-47D breast) of the same compound?
A: 1.5 µM

Q: What about the TGI (T-47D breast) of the same compound?
A: 6.08 µM

Q: What about the GI50 (TK-10 renal) of the same compound?
A: 1.47 µM

Q: What about the TGI (TK-10 renal) of the same compound?
A: 7.93 µM

Q: And the GI50 (U251 CNS)?
A: 2.67 µM

Q: What about the TGI (U251 CNS) of the same compound?
A: 26.8 µM

Q: What about the GI50 (UACC-257 melanoma) of the same compound?
A: 8.52 µM

Q: What about the TGI (UACC-257 melanoma) of the same compound?
A: 27.4 µM

Q: And the GI50 (UACC-62 melanoma)?
A: 2.57 µM

Q: And the TGI (UACC-62 melanoma)?
A: 9.19 µM

Q: What about the GI50 (UO-31 renal) of the same compound?
A: 7.9 µM

Q: And the TGI (UO-31 renal)?
A: 29.8 µM
